Like-named read-outs stand apart in the source and are kept apart here. Where a SMILES comes first, the peptide text is derived from it.
Legend:
[1] = target: Urokinase from human urine (Homo sapiens, UniProt P00749); assay: Enzymatic assay, urokinase
[2] = system: human red blood cells (hRBC); assay: Hemolysis
Experimental: The peptides were tested for their hemolytic activity against human red blood cells (hRBC). Fresh hRBC were washed three times with phosphate buffered saline (PBS) by centrifugation for 10 min at 2000×g. Peptides at a concentration of 100 μM were incubated with 20% v/v hRBC for 1 hour at 37° C. The final erythrocyte concentration was approximately 0.9×10^9 cells per ml. A value of 0% and, respectively, 100% cell lysis was determined by incubation of the hRBC in the presence of PBS alone and, respectively, 0.1% Triton X-100 in H2O. […] The 100% lysis value (OD540H20) gave an OD540 of approximately 1.3-1.8. Percent hemolysis was calculated as follows: (OD540peptide/OD540H20)×100%.

[3] = target: Chymotrypsin, from human pancreas (Homo sapiens, UniProt P17538); assay: Enzymatic assay, chymotrypsin; settings: at 100 μM
Chymase, from human skin = target: T1, Chymase, from human skin (Homo sapiens, UniProt P23946); assay: Enzymatic assay, chymase
T1 sequence (P23946 22-247): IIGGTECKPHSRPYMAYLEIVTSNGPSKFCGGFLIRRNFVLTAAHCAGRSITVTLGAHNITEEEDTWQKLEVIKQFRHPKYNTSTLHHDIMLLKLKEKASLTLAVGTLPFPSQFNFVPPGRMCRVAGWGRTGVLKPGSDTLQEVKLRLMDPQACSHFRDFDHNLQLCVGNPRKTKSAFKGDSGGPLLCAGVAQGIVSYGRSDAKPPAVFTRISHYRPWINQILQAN

[4] = target: T2, CathepsinG, from human neutrophils (Homo sapiens, UniProt P08311); assay: Enzymatic assay, cathepsin G
T2 sequence (P08311 21-244): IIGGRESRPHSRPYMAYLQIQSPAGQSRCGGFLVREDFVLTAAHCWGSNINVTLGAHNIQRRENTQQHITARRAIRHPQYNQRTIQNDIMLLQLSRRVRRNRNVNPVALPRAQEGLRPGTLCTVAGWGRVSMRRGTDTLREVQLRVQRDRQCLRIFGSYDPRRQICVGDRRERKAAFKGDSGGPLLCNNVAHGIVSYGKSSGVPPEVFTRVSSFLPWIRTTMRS

[5] = system: Tryptase, from human lung; assay: Enzymatic assay, tryptase; settings: at 100 μM
HELA cells (Acc57) = assay: Cytotoxicity assay (MTT reduction), HELA cells; assay type: cell-based
Procedure, shortened: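 HeLa cells were grown for 24 h, then exposed to peptides at 12.5, 25 and 50 μM in triplicate for 48 h at 37 °C. MTT reduction was read at 595 nm and growth % calculated relative to time-zero wells. LC50 interpolated by linear trend at −50% growth, GI50 at 50%.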

[6] = target: Coagulation Factor Xa, from uman plasma (Homo sapiens, UniProt P00742); assay: Enzymatic assay, coagulation factor Xa
[7] = target: Thrombin, from Human Plasma (Homo sapiens, UniProt P00734); assay: Enzymatic assay, thrombin
[8] = target: T3, Elastase from human neutrophils (Homo sapiens, UniProt P08246); assay: Enzymatic assay, elastase
T3 sequence (P08246 30-267): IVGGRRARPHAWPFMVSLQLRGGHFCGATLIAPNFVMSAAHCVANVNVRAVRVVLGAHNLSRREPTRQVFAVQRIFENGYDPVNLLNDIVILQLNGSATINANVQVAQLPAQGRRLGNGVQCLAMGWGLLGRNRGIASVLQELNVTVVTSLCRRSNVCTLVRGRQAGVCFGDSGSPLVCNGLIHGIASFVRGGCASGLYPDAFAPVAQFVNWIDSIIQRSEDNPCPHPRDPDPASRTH

[9] = target: Trypsin, from human pancreas (Homo sapiens, UniProt P07477); assay: Enzymatic assay, trypsin; settings: at 100 μM

Sequence of Chymotrypsin, from human pancreas (P17538 19-263): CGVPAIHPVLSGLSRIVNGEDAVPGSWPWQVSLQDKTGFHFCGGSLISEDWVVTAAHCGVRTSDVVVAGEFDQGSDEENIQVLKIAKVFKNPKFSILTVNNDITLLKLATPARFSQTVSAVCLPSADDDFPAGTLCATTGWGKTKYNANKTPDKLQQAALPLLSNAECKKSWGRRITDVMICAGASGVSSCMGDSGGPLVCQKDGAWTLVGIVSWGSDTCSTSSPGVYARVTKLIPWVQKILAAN
Sequence of Coagulation Factor Xa, from uman plasma (P00742 235-488 limits assumed): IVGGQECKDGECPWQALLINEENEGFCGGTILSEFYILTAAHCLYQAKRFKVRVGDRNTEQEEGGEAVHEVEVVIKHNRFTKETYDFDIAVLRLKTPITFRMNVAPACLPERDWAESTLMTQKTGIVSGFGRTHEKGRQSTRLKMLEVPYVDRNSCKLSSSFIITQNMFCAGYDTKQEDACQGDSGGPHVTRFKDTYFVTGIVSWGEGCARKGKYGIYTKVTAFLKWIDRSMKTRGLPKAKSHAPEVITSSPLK
Sequence of Coagulation Factor Xa, from uman plasma (P00742 41-179 limits assumed): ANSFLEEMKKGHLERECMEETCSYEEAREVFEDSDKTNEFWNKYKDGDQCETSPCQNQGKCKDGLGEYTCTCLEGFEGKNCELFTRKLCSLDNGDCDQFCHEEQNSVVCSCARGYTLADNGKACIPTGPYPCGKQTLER

SMILES	Urokinase at 100 μM % [1] [%]	Hemolysis at 100 μM % [2] [%]	Chymotrypsin at 100 μM % [3] [%]	Chymase at 100 μM % (Chymase, from human skin) [%]	IC50 ([4]; Cathepsin G IC50) [µM]	Tryptase at 100 μM % [5] [%]	Cytotoxicity LC50/GI50 Hela cells (HELA cells (Acc57); Hela cells) [µM]	FXa at 100 μM % [6] [%]	Thrombin at 100 μM % [7] [%]	IC50 ([8]; Elastase IC50) [µM]	Trypsin at 100 μM % [9] [%]	Cytotoxicity LC50/GI50 Hela cells (HELA cells (Acc57)) [µM]	Elastase at 100 μM % ([8]; at 100 μM (stated in cell instead of IC50)) [at %]	IC50 ([4]; read-out: Cathepsin G IC50) [µM]	IC50 ([8]; read-out: Elastase IC50) [µM]
CC[C@H](C)[C@@H]1NC(=O)[C@@H]2CCCN2C(=O)[C@@H]2CCCN2C(=O)[C@H](CC(=O)O)NC(=O)[C@H](CO)NC(=O)[C@H](CCCCN)NC(=O)[C@H]([C@@H](C)O)NC(=O)[C@@H]2CSSC[C@H](NC1=O)C(=O)N[C@@H](CO)C(=O)N1CCC[C@@H]1C(=O)N[C@@H](CCC(=O)O)C(=O)N[C@@H](Cc1ccccc1)C(=O)N2 [Ex. 64] (HELM PEPTIDE1{F.C.T.K.S.D.P.P.I.C.S.[dP].E}$PEPTIDE1,PEPTIDE1,2:R3-10:R3|PEPTIDE1,PEPTIDE1,1:R1-13:R2$$$V2.0)	3	0	0	0	0.045	0	59	0	2.3	> 100	87				
CC[C@H](C)[C@@H]1NC(=O)[C@@H]2CCCN2C(=O)[C@@H]2CCCN2C(=O)[C@H](CC(=O)O)NC(=O)[C@H](CO)NC(=O)[C@H](CCCCN)NC(=O)[C@H]([C@@H](C)O)NC(=O)[C@H](CCC(=O)O)NC(=O)[C@H](CCCNC(=N)N)NC(=O)[C@@H]2CCCN2C(=O)[C@H]2CCCN2C(=O)[C@H](Cc2ccccc2)NC(=O)[C@H](CCCNC(=N)N)NC1=O [Ex. 7] (HELM PEPTIDE1{R.E.T.K.S.D.P.P.I.R.F.[dP].P}$PEPTIDE1,PEPTIDE1,1:R1-13:R2$$$V2.0)	1.1	0.2	12	13.4	0.091	1.5		11.7	0		41	100	1.5		
CC[C@H](C)[C@@H]1NC(=O)[C@@H]2CCCN2C(=O)[C@@H]2CCCN2C(=O)[C@H](CC(=O)O)NC(=O)[C@H](CO)NC(=O)[C@H](CCCCN)NC(=O)[C@H]([C@@H](C)O)NC(=O)[C@@H]2CSSC[C@H](NC1=O)C(=O)N[C@@H](CO)C(=O)N1CCC[C@@H]1C(=O)N[C@@H](CC(=O)O)C(=O)N[C@@H](Cc1ccccc1)C(=O)N2 [Ex. 47] (HELM PEPTIDE1{F.C.T.K.S.D.P.P.I.C.S.[dP].D}$PEPTIDE1,PEPTIDE1,2:R3-10:R3|PEPTIDE1,PEPTIDE1,1:R1-13:R2$$$V2.0)	6.3	0	1	8.2	0.064	0	100	9.3	0	> 10	87				
CC[C@H](C)[C@@H]1NC(=O)[C@@H]2CCCN2C(=O)[C@@H]2CCCN2C(=O)[C@H](CC(=O)O)NC(=O)[C@H](CO)NC(=O)[C@H](CCCCN)NC(=O)[C@H]([C@@H](C)O)NC(=O)[C@@H]2CSSC[C@H](NC1=O)C(=O)N[C@@H](CC(N)=O)C(=O)N1CCC[C@@H]1C(=O)N1CCC[C@H]1C(=O)N[C@@H](Cc1ccccc1)C(=O)N2 [Ex. 3] (HELM PEPTIDE1{F.C.T.K.S.D.P.P.I.C.N.[dP].P}$PEPTIDE1,PEPTIDE1,2:R3-10:R3|PEPTIDE1,PEPTIDE1,1:R1-13:R2$$$V2.0)	4	0	0	1	0.051	68	100	4	0	> 100	92				
CC[C@H](C)[C@@H]1NC(=O)[C@H](C)NC(=O)[C@@H]2CCCN2C(=O)[C@H](CC(=O)O)NC(=O)[C@H](CO)NC(=O)[C@H](CCCCN)NC(=O)[C@H]([C@@H](C)O)NC(=O)[C@@H]2CSSC[C@H](NC1=O)C(=O)N[C@@H](CCCNC(=N)N)C(=O)N1CCC[C@@H]1C(=O)N1CCC[C@H]1C(=O)N[C@@H]([C@@H](C)CC)C(=O)N2 [Ex. 52] (HELM PEPTIDE1{I.C.T.K.S.D.P.A.I.C.R.[dP].P}$PEPTIDE1,PEPTIDE1,2:R3-10:R3|PEPTIDE1,PEPTIDE1,1:R1-13:R2$$$V2.0)	5.4	0	0	42.3		84.2	100	6	8.7		86			0.052	> 100
CC[C@H](C)[C@@H]1NC(=O)[C@@H]2CCCN2C(=O)[C@@H]2CCCN2C(=O)[C@H](CC(=O)O)NC(=O)[C@H](CO)NC(=O)[C@H](CCCCN)NC(=O)[C@H]([C@@H](C)O)NC(=O)[C@@H]2CSSC[C@H](NC1=O)C(=O)N[C@@H]([C@@H](C)O)C(=O)N1CCC[C@@H]1C(=O)N1CCC[C@H]1C(=O)N[C@@H](C1CCCCC1)C(=O)N2 [Ex. 38] (HELM PEPTIDE1{[O=C([C@@H](N[*:1])C1CCCCC1)[*:2]].C.T.K.S.D.P.P.I.C.T.[dP].P}$PEPTIDE1,PEPTIDE1,2:R3-10:R3|PEPTIDE1,PEPTIDE1,1:R1-13:R2$$$V2.0)	1	0	4	1	0.031	11	100	0	0	> 100	96				

Source: US8658604B2, “Template-fixed beta-hairpin peptidomimetics with protease inhibitory activity” (Polyphor Ltd, priority 2005, dated 2014)
